Data as given in patent US20190275002A1 (priority 2018, published 2019).
Like-named read-outs stand apart in the source and are kept apart here.

Legend:
[1] = test system: influenza A virus (strain A/Puerto Rico/8/1934/H1N1); test: Viral load in lungs of PR8-infected mice by plaque assay on MDCK cells; type: in vivo, C57BL/6J mice; settings: for Average viral load (pfu): substances in drinking water (experimental group also intraperitoneal injection)
[2] = test system: influenza A virus (strain A/Kumamoto/Y5/67 H2N2); settings: mouse, in vivo; cited from earlier work
[3] = test system: influenza A virus (strain A/Hong Kong/X31/68 H3N2); settings: lungs of infected mice, 1-MT in drinking water; cited from earlier work
[4] = test system: influenza A virus (strain A/Aichi/2/1968 H3N2); settings: 0.7 M arginine-containing solution, cited from earlier work
[5] = mice lungs, seventh day after intranasal inoculation with 200 pfu PR8 virus
[6] = mice lungs, seventh day after virus inoculation

Compound: CN=C(N)NCCC[C@H](N)C(=O)O.O=C(O)CC(O)(CC(=O)O)C(=O)O [Inhibitor group 1, L-NG-monomethyl arginine citrate]
- Average viral load (pfu) ([1]; […]): 4.30 × 10^3 pfu
- average viral load compared with the control group ([1]; mouse, in vivo): significantly lower
- production of NO-hemoglobin in the lungs [2]: inhibit
- survival rate [2]: effectively increasing

Compound: N=C(NO)NCC[C@H](N)C(=O)O [Inhibitor group 2, N^ω-hydroxy-nor-L-arginine acetate]
- Average viral load (pfu) [1, 5]: 2.47 × 10^3 pfu
- average viral load compared with the control group [1, 6]: significantly lower

Compound: Cn1cc(C[C@H](N)C(=O)O)c2ccccc21 [Inhibitor group 3, 1-methyl-tryptophan]
- Average viral load (pfu) [1, 5]: 4.37 × 10^3 pfu
- average viral load compared with the control group [1, 6]: significantly lower
- number of activated and functional CD4+ T-cells, influenza-specific CD8+ T-cells and effector memory cells [3]: increased significantly

Compound: N=C(N)NCCC[C@H](N)C(=O)O [arginine]
- virus inactivation effect ([4]; pH 4.5, on ice for 30 to 60 minutes): most potent virus inactivation effect
- virus inactivation effect ([4]; pH 5.5, on ice for 30 to 60 minutes): no virus inactivation effect was detected
